Results on ten substances are retold here after patent US6531446B1, “Peptides having biological activity” (Korea Advanced Institute of Science and Technology, priority 1998, dated 2003).

What all share (format): cell-based
In experiment [1] the test system is Psudomonas putida. In words: Minimal inhibitory concentration, 96-well broth dilution. To be noted: Gram-negative; second part of Table 2. As to the method:
(§1) By using the peptides as in Example 1, the minimal inhibitory concentration of the peptides were determined against a variety of microorganisms. Bacteria and fungi were incubated overnight in Mller-Hinton and Saboraud media, respectively, at 37 and 30° C., respectively, and were inoculated in media for 2 hours to a midlogarithmic phase. After diluting the bacteria and fungi to 10^4-10^5 per 1 ml, they were inoculated into a 96-well plate containing serially diluted peptides and incubated for additional 18 hours. The minimal inhibitory concentration was determined at a concentration that inhibits the growth of the microorganisms by measuring the absorbance.
A general note: In broth dilution the organism is exposed to a series of concentrations in liquid medium.

Experiment [2] concerns Staphylococcus aureus. As to the method:
as §1

Experiment [3] has as its system Serratia sp. As to the method: as §1
In experiment [4] the test system is Cryptococcus neoformans. Here is the method:
as §1

For experiment [5], the system named is Streptococcus pneumoniae. As to the method:
as §1

Experiment [6] has as its system Saccharomyces cerevisiae. Here is the method:
as §1

For experiment [7], the system named is Bacillus subtilis. As to the method:
as §1

In experiment [8] the test system is Streptococcus mutans. As to the method: as §1
Experiment [9] deals with Salmonella typhimurium. As to the method: as §1
In experiment [10] the test system is Escherichia coli. Here is the method:
as §1

Experiment [11] deals with Candida albicans. Here is the method:
as §1

Experiment [12] relates to a variety of microorganisms. In words: Estimation of antimicrobial activity, overall statement in words. To be noted: result in words. Here is the method: as §1
The mark [13] stands for this setting: Gram-positive, second part of Table 2.
Where [14] appears, read: Gram-negative, second part of Table 2.

Where two headings read alike, the source gives them in different places. No end group written: not given here. Where only a bound is given, the exact number is not on record here.

In the case of RAGLQFPVGRLLRRLLRRLLR [Seq No. 15], the “Minimal Inhibitory Concentrations” value in [1] came to 1 μg/m; in [2] (setting [13]), 1 μg/m; in experiment [3] (setting [14]) it was 1 μg/m; in experiment [4] (Fungi, second part of Table 2) it was 1 μg/m; in experiment [5] (setting [13]), 1 μg/m; in experiment [6] (Fungi, second part of Table 2), 4 μg/m. In addition, the “Minimal Inhibitory Concentrations” value in [7] (setting [13]) is reported as 1 μg/m; in [8] (setting [13]) it was 0.5 μg/m; in experiment [9] (setting [14]), 1 μg/m; in experiment [10] (setting [14]), 1 μg/m; in [11] (Fungi, second part of Table 2) it was 2 μg/m. Also, the antimicrobial activity entry in experiment [12] was “especially potent antimicrobial activity”.

As to “Arg Ala Gly Leu Gln Phe Pro Val Gly Arg Val His Arg Leu Leu Arg Lys-NH2 (RAGLQFPVGRVHRLLRK-NH2) [Seq No. 16]”, the “Minimal Inhibitory Concentrations” value in [1] stood at 2 μg/m; in experiment [2] (setting [13]) it was 1 μg/m; in experiment [3] (setting [14]), 1 μg/m; in experiment [4] (Fungi, second part of Table 2) it was 1 μg/m; in experiment [5] (setting [13]), 1 μg/m; in experiment [6] (Fungi, second part of Table 2), 2 μg/m. Also, the “Minimal Inhibitory Concentrations” value in [7] (setting [13]) was 1 μg/m; in experiment [8] (setting [13]) it was 0.5 μg/m; in [9] (setting [14]) it was 2 μg/m; in [10] (setting [14]) it was 2 μg/m; in experiment [11] (Fungi, second part of Table 2), 2 μg/m.

RAGLQFPVGRLLRRLLR [Buf(5-13)[RLLR]2]: the “Minimal Inhibitory Concentrations” value is 16 μg/m in [1]; 8 μg/m in experiment [2] (setting [13]); 8 μg/m in [3] (setting [14]); 4 μg/m in experiment [4] (Fungi, second part of Table 2); 8 μg/m in experiment [5] (setting [13]); 8 μg/m in experiment [6] (Fungi, second part of Table 2). Moreover, the “Minimal Inhibitory Concentrations” value in [7] (setting [13]) stood at 4 μg/m; in experiment [8] (setting [13]), 16 μg/m; in experiment [9] (setting [14]), 4 μg/m; in experiment [10] (setting [14]), 8 μg/m; in experiment [11] (Fungi, second part of Table 2), 4 μg/m.

As to RLLRRLLRRLLR [(RLLR)3], the “Minimal Inhibitory Concentrations” value in experiment [1] is listed as 16 μg/m; in [2] (setting [13]) it was 16 μg/m; in experiment [3] (setting [14]) it was 16 μg/m; in [4] (Fungi, second part of Table 2), 32 μg/m; in experiment [5] (setting [13]), 16 μg/m; in experiment [6] (Fungi, second part of Table 2), 32 μg/m. In addition, the “Minimal Inhibitory Concentrations” value in [7] (setting [13]) stood at 16 μg/m; in experiment [8] (setting [13]) it was 16 μg/m; in [9] (setting [14]) it was 16 μg/m; in experiment [10] (setting [14]), 32 μg/m; in [11] (Fungi, second part of Table 2), 32 μg/m.

Take PVGRVHRLLRK [Seq No. 7]: the “Minimal Inhibitory Concentrations” value stood at 50 µg/mL in experiment [2] (18 h); 25 µg/mL in experiment [3] (18 h); 50 µg/mL in experiment [4] (18 h); 50 µg/mL in [5] (18 h); 50 µg/mL in [6] (18 h); 25 µg/mL in experiment [7] (18 h). The “Minimal Inhibitory Concentrations” value was 25 µg/mL in experiment [8] (18 h); 50 µg/mL in experiment [9] (murium, 18 h); 25 µg/mL in [10] (18 h); 50 µg/mL in [11] (18 h). In experiment [12], the antimicrobial activity entry is reported as “strong antimicrobial activity”.

As to RKGLQKLVGRVHRLLRK [Seq No. 12], the “Minimal Inhibitory Concentrations” value in [1] came to 36 μg/m; in [2] (setting [13]), 18 μg/m; in experiment [3] (setting [14]) it was 4 μg/m; in experiment [4] (Fungi, second part of Table 2), 8 μg/m; in experiment [5] (setting [13]), 18 μg/m; in [6] (Fungi, second part of Table 2), 4 μg/m. In addition, the “Minimal Inhibitory Concentrations” value in experiment [7] (setting [13]) is given as 18 μg/m; in experiment [8] (setting [13]) it was 36 μg/m; in experiment [9] (setting [14]), 18 μg/m; in [10] (setting [14]) it was 18 μg/m; in [11] (Fungi, second part of Table 2) it was 16 μg/m.

Turning to RLLRRLLRRLLRRLLRRLLR [Seq No. 13], the “Minimal Inhibitory Concentrations” value in experiment [1] is 2 μg/m; in experiment [2] (setting [13]), 1 μg/m; in experiment [3] (setting [14]) it was 1 μg/m; in [4] (Fungi, second part of Table 2) it was 8 μg/m; in experiment [5] (setting [13]) it was 2 μg/m; in experiment [6] (Fungi, second part of Table 2), 8 μg/m. In addition, the “Minimal Inhibitory Concentrations” value in experiment [7] (setting [13]) is 2 μg/m; in experiment [8] (setting [13]) it was 2 μg/m; in experiment [9] (setting [14]) it was 2 μg/m; in experiment [10] (setting [14]) it was 2 μg/m; in experiment [11] (Fungi, second part of Table 2) it was 8 μg/m. Also, in experiment [12], the antimicrobial activity entry is “strong antimicrobial activities”.

For the substance RLLRRLLRRLLRRLLR [(RLLR)4], the “Minimal Inhibitory Concentrations” value in [1] was determined as 2 μg/m; in experiment [2] (setting [13]), 1 μg/m; in [3] (setting [14]), 1 μg/m; in experiment [4] (Fungi, second part of Table 2) it was 8 μg/m; in [5] (setting [13]), 2 μg/m; in experiment [6] (Fungi, second part of Table 2), 8 μg/m. Moreover, the “Minimal Inhibitory Concentrations” value turned out to be 2 μg/m in experiment [7] (setting [13]); 2 μg/m in experiment [8] (setting [13]); 2 μg/m in experiment [9] (setting [14]); 2 μg/m in experiment [10] (setting [14]); 8 μg/m in experiment [11] (Fungi, second part of Table 2). Further, the antimicrobial activity entry in experiment [12] was “strong antimicrobial activities”.

Turning to RVHRLLRRVHRLLRRVHRLLR [Seq No. 14], the “Minimal Inhibitory Concentrations” value is listed as 50 μg/m in [1]; 50 μg/m in [2] (setting [13]); 3 μg/m in experiment [3] (setting [14]); 100 μg/m in [4] (Fungi, second part of Table 2); 100 μg/m in experiment [5] (setting [13]); more than 200 μg/m in experiment [6] (Fungi, second part of Table 2). Moreover, the “Minimal Inhibitory Concentrations” value in [7] (setting [13]) is reported as 6 μg/m; in [8] (setting [13]), 25 μg/m; in experiment [9] (setting [14]), 50 μg/m; in experiment [10] (setting [14]), 100 μg/m; in experiment [11] (Fungi, second part of Table 2), more than 200 μg/m.

With RAGLQFPVGRLLR [Buf(5-13)[RLLR]], the “Minimal Inhibitory Concentrations” value in experiment [1] is listed as 32 μg/m; in experiment [2] (setting [13]), 64 μg/m; in experiment [3] (setting [14]), 32 μg/m; in [4] (Fungi, second part of Table 2) it was 32 μg/m; in experiment [5] (setting [13]), 32 μg/m; in experiment [6] (Fungi, second part of Table 2) it was 32 μg/m. Also, the “Minimal Inhibitory Concentrations” value is on record as 32 μg/m in [7] (setting [13]); 16 μg/m in [8] (setting [13]); 16 μg/m in [9] (setting [14]); 32 μg/m in experiment [10] (setting [14]); 32 μg/m in experiment [11] (Fungi, second part of Table 2).
